Data on two molecules can be found in patent publication US20100112617A1, “Evaluating RTK Target Drugs” (Apocell, Inc, priority 2007, published 2010).

Holding throughout (type): cell-based
For experiment [1], the target named is T1, EGFR (Homo sapiens, UniProt P00533).
T1 construct: host or cells: HT-29 colon cancer cells
Kind of experiment: pEGFR and tEGFR levels in EGF-stimulated HT-29 colon cancer cells by laser scanning cytometry. To be noted: HT-29 cells; for pEGFR fold change in level / pEGFR/tEGFR fold change in level / tEGFR fold change in level: 0% FCS, EGF 100 ng/ml for 5 min. On the procedure:
We sought to test RTK response to RTKI's and thus measured both phospho-RTK and total RTK using a known RTKI challenge reagent. AEE788 (NOVARTIS®) is an oral multiple-receptor tyrosine kinase inhibitor of EGFR, human epidermal growth factor receptor 2 (HER-2), and vascular endothelial growth factor receptor (VEGFR). Thus, we measured EGFR response to AEE788 using antibody quantitation of the two parameters. HT-29 colon cancer cells were treated with increasing doses of AEE788, (0, 4, 20, 100, and 1000 nM) for 4 hours in serum-free media followed by EGF stimulation at 100 ng/ml for 5 minutes. Cells were then fixed and stained with anti-phospho-EGFR (P-EGFR-Y1173) antibody followed by a secondary antibody conjugated with a fluorescent probe. The mean fluorescence index (MFI) of pEGFR was quantified by laser scanning cytometry (LSC) […] and the results are shown in Table 2.

Experiment [2] deals with T2, PDGFR-β (Homo sapiens, UniProt P09619). Nature of the experiment: pPDGFR-β/tPDGFR-β ratio in PDGF-stimulated HUVEC cells. The conditions noted are these: for HUVEC pPDGFR-β/tPDGFR-β fold ratio change: PDGF 50 ng/ml 10 min. On the set-up: endogenous in cells; host or cells: HUVEC. The source says:
(§1) Thus, we repeated the experiment using additional RTKs and RTKIs. We used a known RTKI challenge reagent SU11248, which blocks phosphorylation of several kinases, including VEGFR2 (KDR), stem cell tyrosine kinase receptor (KIT), platelet-derived growth factor receptor (PDGFR), and fms-related tyrosine kinase 3 (FLT3).

The target in experiment [3] is T2, PDGFR-β. Kind of experiment: pPDGFR-β/tPDGFR-β ratio in PDGF-stimulated GIST cells. The conditions noted are these: for GIST pPDGFR-β/tPDGFR-β fold ratio change: PDGF 50 ng/ml 10 min. On the set-up: endogenous in cells; host or cells: GIST (gastrointestinal stromal tumor) cells.
Source text: as §1

T2 sequence (P09619 33-1106): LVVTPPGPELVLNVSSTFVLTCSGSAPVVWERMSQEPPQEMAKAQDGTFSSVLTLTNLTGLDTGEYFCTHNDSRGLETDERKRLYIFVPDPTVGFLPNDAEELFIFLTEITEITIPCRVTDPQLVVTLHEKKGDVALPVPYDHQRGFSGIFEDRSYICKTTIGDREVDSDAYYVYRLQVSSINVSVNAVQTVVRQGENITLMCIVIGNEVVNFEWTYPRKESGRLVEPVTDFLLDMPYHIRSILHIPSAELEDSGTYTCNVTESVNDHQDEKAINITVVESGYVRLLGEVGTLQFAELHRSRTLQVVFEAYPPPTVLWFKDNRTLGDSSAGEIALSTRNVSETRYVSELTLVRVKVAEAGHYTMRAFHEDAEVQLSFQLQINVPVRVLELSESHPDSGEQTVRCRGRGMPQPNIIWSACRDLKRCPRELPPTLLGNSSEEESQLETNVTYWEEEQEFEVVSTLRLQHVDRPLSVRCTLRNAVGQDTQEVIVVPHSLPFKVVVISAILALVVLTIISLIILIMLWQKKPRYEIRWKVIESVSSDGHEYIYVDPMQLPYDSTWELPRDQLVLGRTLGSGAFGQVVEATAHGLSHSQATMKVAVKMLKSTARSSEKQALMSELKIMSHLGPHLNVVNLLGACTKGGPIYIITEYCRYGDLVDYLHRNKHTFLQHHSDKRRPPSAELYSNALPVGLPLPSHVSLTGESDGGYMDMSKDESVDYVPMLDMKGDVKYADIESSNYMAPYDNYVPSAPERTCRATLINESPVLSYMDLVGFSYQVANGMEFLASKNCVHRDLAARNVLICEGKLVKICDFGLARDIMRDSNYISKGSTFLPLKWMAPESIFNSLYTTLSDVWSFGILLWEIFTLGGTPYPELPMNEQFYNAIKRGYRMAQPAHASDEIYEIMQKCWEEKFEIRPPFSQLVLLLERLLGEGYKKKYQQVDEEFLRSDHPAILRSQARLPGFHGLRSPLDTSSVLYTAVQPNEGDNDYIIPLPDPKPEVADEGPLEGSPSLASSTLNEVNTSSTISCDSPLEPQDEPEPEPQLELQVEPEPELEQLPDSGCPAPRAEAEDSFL
T1 sequence (P00533 25-1210): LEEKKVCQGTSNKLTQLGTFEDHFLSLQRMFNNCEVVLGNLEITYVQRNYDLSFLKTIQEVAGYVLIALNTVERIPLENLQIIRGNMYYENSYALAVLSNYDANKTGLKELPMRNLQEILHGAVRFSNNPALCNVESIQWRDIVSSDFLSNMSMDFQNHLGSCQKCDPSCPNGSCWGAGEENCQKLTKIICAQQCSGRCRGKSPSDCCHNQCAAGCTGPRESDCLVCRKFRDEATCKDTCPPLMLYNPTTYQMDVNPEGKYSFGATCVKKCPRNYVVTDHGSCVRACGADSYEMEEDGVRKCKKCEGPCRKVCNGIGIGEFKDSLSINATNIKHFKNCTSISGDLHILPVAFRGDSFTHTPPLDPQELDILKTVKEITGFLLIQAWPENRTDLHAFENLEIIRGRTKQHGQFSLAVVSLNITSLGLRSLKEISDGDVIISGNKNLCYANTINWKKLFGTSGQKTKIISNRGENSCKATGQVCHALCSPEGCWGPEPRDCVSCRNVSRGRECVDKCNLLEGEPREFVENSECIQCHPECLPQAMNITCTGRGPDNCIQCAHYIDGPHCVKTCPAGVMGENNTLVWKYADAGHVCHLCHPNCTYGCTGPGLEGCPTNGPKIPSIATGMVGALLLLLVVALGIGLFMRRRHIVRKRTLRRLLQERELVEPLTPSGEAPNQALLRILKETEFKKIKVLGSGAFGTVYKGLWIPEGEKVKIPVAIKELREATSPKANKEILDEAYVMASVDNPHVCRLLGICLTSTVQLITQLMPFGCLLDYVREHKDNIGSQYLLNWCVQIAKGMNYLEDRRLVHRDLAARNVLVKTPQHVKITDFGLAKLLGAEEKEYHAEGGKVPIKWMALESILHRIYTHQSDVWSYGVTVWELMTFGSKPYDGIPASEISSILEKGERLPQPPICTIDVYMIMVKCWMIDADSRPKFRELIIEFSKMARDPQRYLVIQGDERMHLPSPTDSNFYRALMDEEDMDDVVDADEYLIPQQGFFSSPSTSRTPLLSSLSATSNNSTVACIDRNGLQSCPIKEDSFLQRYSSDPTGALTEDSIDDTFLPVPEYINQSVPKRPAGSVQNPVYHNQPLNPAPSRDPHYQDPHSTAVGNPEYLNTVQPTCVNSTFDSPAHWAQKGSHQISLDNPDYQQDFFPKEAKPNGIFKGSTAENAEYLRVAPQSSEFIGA

For `CCN1CCN(Cc2ccc(-c3cc4c(N[C@H](C)c5ccccc5)ncnc4[nH]3)cc2)CC1` [AEE788], in experiment [1] (4 nM for 4 h), the “pEGFR fold change in level” value was found to be 1.36 fold, the “pEGFR/tEGFR fold change in level” value worked out at 0.65 fold and the “tEGFR fold change in level” value is given as 2.11 fold. Further, in experiment [1] (20 nM for 4 h), the “pEGFR fold change in level” value was 0.97 fold, the “pEGFR/tEGFR fold change in level” value was 0.21 fold and the “tEGFR fold change in level” value is 4.61 fold. Besides, in experiment [1] (100 nM for 4 h), the “pEGFR fold change in level” value was 0.70 fold, the “pEGFR/tEGFR fold change in level” value came out at 0.16 fold and the “tEGFR fold change in level” value was found to be 4.37 fold. Further, in experiment [1] (1000 nM for 4 h), the “pEGFR fold change in level” value was 0.52 fold, the “pEGFR/tEGFR fold change in level” value turned out to be 0.15 fold and the “tEGFR fold change in level” value is 3.53 fold. Besides, in experiment [1] (4-1000 nM), the “EGF-induced phosphorylation of EGFR (pEGFR), in words” value is listed as “inhibited EGF-induced phosphorylation of its receptor (pEGFR) in a dose-dependent manner” and the “total EGFR levels, in words” value is “up-regulated total EGFR levels”.
In the case of `CCN(CC)CCNC(=O)c1c(C)[nH]c(/C=C2\C(=O)Nc3ccc(F)cc32)c1C` [SU11248], the “pPDGFR-β/tPDGFR-β ratio, in words” value in experiment [2] and in experiment [3] was “decreased in a dose-dependent manner” throughout. For the same molecule, the “HUVEC pPDGFR-β/tPDGFR-β fold ratio change” value in experiment [2] (0.01 μM) came out at 2.42 ± 0.36 fold; in experiment [2] (0.1 μM), 1.48 ± 0.15 fold; in experiment [2] (1 μM), 1.40 ± 0.23 fold. Also, the results for the “GIST pPDGFR-β/tPDGFR-β fold ratio change” value in experiment [3] (0.01 μM), in experiment [3] (0.1 μM) and in experiment [3] (1 μM) were 0.97 ± 0.05 fold, 0.00 ± 0.59 fold and 0.00 ± 0.08 fold, respectively.
